Values joined by “and” are separate entries in the source; they are usually repeats but may differ in a detail not shown here. Identical values can stand only once.
What was measured:
Type in all cases: cell-based
[1] = system: YD-38, CAL-33 and CCK-81 cells; assay: 3 day CellTiter-Glo proliferation / dose matrix combination, statements over all three cell lines
Procedure: Cell viability was determined by measuring cellular ATP content using the CellTiter-Glo®(CTG) luminescent cell viability assay (Promega #G7573) according to the manufacturer's protocol. Briefly, various number of cells (6000 for CAL-33, 4200 for YD-38 and 7000 for CCK-81) were seeded in 80 μl growth media per well in clear-bottom 96-well black plates (Costar, #3904) in triplicates. […] At the end of the drug treatment, 100 ul CTG reagent was added to each well to lyse the cells, and luminescence signals were recorded in the Envision plate reader (Perkin Elmer).
In all combination assays, compounds were applied simultaneously. […] The synergistic interaction was analyzed using Chalice software (CombinatoRx, Cambridge Mass.). Synergy was calculated by comparing a combination's response to those of its single agents, against the drug-with-itself dose-additive reference model and reported as Synergy Score (Lehar et al., 2009).
YD-38, CAL-33 and CCK-81 cells were treated in 96-well format for 3 days with HGF alone, Panitumumab alone, Panitumumab as a singal agent and Panitumumab with INC280 in the present or absent of HGF. […] Cell viability was measured using the CellTiter-Glo assay. % viability was plotted as bar graphs with mean values and standard deviations from triplicates. […]

CCK-81 cells = assay: 3 day CellTiter-Glo cell proliferation assay / dose matrix combination, CCK-81
Procedure: (§1) YD-38, CAL-33 and CCK-81 cells were cultured at 37° C. in a 5% CO2 incubator using the ATCC media (YD-38, RPMI-1640; CAL-33, DMEM; CCK-81, EMEM) supplemented with 10% FBS (Thermo scientific, SH30071.03). […] L-glutamine (Invitrogen, #25030-081) was also supplemented for CAL-33 media. Cells were passaged twice a week using TryPLE Express (Invitrogen, #12604-013).
(§2) Cell viability was determined by measuring cellular ATP content using the CellTiter-Glo®(CTG) luminescent cell viability assay (Promega #G7573) according to the manufacturer's protocol. Briefly, various number of cells (6000 for CAL-33, 4200 for YD-38 and 7000 for CCK-81) were seeded in 80 μl growth media per well in clear-bottom 96-well black plates (Costar, #3904) in triplicates. Cells were allowed to attach overnight prior to 72 hours of treatment with indicated compounds (serially-diluted where applicable) and/or 75 ng/ml HGF in a volume of 100 ul for HGF rescue experiment (+20 μl compound or HGF) or 140 ul for Chalice combination experiment (+20 μl compound A+20 μl compound B+20 ul media or HGF). At the end of the drug treatment, 100 ul CTG reagent was added to each well to lyse the cells, and luminescence signals were recorded in the Envision plate reader (Perkin Elmer).
(§3) In all combination assays, compounds were applied simultaneously. […] INC280 was subjected to a 7 doses 3× serial dilution with the highest dose at 1.5 μM and the lowest dose at about […]. The synergistic interaction was analyzed using Chalice software (CombinatoRx, Cambridge Mass.). Synergy was calculated by comparing a combination's response to those of its single agents, against the drug-with-itself dose-additive reference model and reported as Synergy Score (Lehar et al., 2009).
(§4) YD-38, CAL-33 and CCK-81 cells were treated in 96-well format for 3 days with HGF alone, Panitumumab alone, Panitumumab as a singal agent and Panitumumab with INC280 in the present or absent of HGF. (FIGS. 6 and 7). Cell viability was measured using the CellTiter-Glo assay. % viability was plotted as bar graphs with mean values and standard deviations from triplicates. […] Each data point represents averaged data from 3 wells +standard deviation, and the color spectrum also represents the level of the inhibition.

YD-38 cells = assay: 3 day CellTiter-Glo cell proliferation assay / dose matrix combination, YD-38
Procedure: as §1, §2, §3, §4

CAL-33 cells = assay: 3 day CellTiter-Glo cell proliferation assay / dose matrix combination, CAL-33
Procedure: as §1, §2, §3, §4

[2] = co-treatment with 500 nM INC280, 100 nM Cetuximab, 75 ng/ml HGF
[3] = INC280 single agent, dose matrix
[4] = addition of 75 ng/ml HGF together with antibody

`CNC(=O)c1ccc(-c2cnc3ncc(Cc4ccc5ncccc5c4)n3n2)cc1F` [INC280, 2-fluoro-N-methyl-4-[(7-quinolin-6-yl-methyl)-imidazo[1,2-b]triazin-2-yl]benzamide] was tested, and the “anti-proliferation effect, single agent” value ([1]; INC280 single agent, regardless of HGF addition) was “little or no anti-proliferation effect”, the “INC280 concentration that re-sensitized cells to Cetuximab” value ([1]; presence of HGF) was 18 nM and the inhibition at 1.5 µM (CCK-81 cells; INC280 at 1.5 μM, presence of HGF, read-out: growth inhibition, single agent) was roughly 20%. The “block of the HGF rescue of Cetuximab effect” value (“block” below) (CCK-81 cells; [2]) was “fully blocked”, the “INC280 concentration that re-sensitized HGF-treated cells to Cetuximab” value (CCK-81 cells; presence of HGF, dose matrix) was 18 nM and the “anti-proliferation effect, single agent” value (YD-38 cells; [3]) was “no anti-proliferation effect”. The “block” value (YD-38 cells; [2]) was “completely blocked”, the “INC280 concentration that re-sensitized HGF-treated cells to Cetuximab” value (YD-38 cells; presence of HGF, dose matrix) was 18 nM and the “anti-proliferation effect, single agent” value (CAL-33 cells; [3]) was “no anti-proliferation effect”. For the same compound, the “block” value (CAL-33 cells; [2]) was “completely blocked” and the “INC280 concentration that re-sensitized HGF-treated cells to Cetuximab” value (CAL-33 cells; presence of HGF, dose matrix) was 18 nM.
With “HGF: Recombinant HGF (R&D Systems, 294-HG-005/CF), ligand activating MET [reference compound]” the “growth-stimulating effect of HGF alone” value (CCK-81 cells; 75 ng/ml HGF alone) was ~19% and ~20%, the “growth-stimulating effect of HGF alone” value (YD-38 cells; 75 ng/ml HGF alone) was “no growth-stimulating effect” and the “growth-promoting effect by HGF alone” value (CAL-33 cells; 75 ng/ml HGF alone) was roughly 16%.
“Panitumumab: fully human monoclonal antibody specific to the epidermal growth factor receptor [reference compound]” was tested, and the “HGF rescue of the anti-proliferation effect of the EGFR antibody” value (“HGF rescue … of the EGFR antibody” for short) (CCK-81 cells; [4]) was “rescued”, the “HGF rescue … of the EGFR antibody” value (YD-38 cells; [4]) was “rescued” and the “HGF rescue … of the EGFR antibody” value (CAL-33 cells; [4]) was “rescued”.

— US20170224692A1, “Combination Therapy” (Novartis AG, priority 2014, published 2017)
